Source: patent US20120264942A1, “METHOD FOR SCREENING OSTEOPONTIN INHIBITOR AND INHIBITOR OBTAINED FROM THE METHOD” (INNOPHARMASCREEN, INC., priority 2009, published 2012)

Columns and labels:
mouse osteoclast = assay: Osteoclast differentiation inhibition, mouse osteoclast with M-CSF and RANKL (Example 5); assay type: cell-based; conditions: M-CSF 30 ng/ml, RANKL 200 ng/ml
Experimental: For FIG. 6, the mouse osteoclast (2×10^4/well) was added to 48 well plate; M-CSF (30 ng/ml) and RANKL (200 ng/ml) were added at the same time; and then 10 mM of each of C01, CO2, and G10 that are an osteopontin inhibitor was treated to analysis the inhibition ability for differentiating to an osteoclast.

mouse skull calvaria = assay: Mouse Calvaria Model, LPS-induced born destruction; assay type: in vivo; conditions: Lipopolysaccharide 10 mg/kg to mouse skull; compound 10 mg/kg
Experimental: […] On 5 days, the mice calvaria were extracted; the cross-section of the calvaria was stained with H&E Staining to identify; and then the inhibition degree of the born destruction effect was analyzed using Image-pro Plus 4.5 (Media Cybernetics, Inc.).

osteoclast = assay: Osteoclast differentiation inhibition, myeloplast-derived macrophage with hM-CSF and RANKL, TRAP staining (Example 4); assay type: cell-based, mice (C57BL/6J); conditions: 10 mM; 30 ng/ml hM-CSF, 100 ng/ml RANKL; 4 days
Experimental: Myeloplasts collected from five-week mice (C57BL/6J) were added to 48-well plate and cultured in a differentiation medium [a-MEM (Invitrogen. co.), 10% (v/v) Fetal bovine serum (FBS), 100 units/ml penicillin, 100 μg/ml streptomycin] including 30 ng/ml of hM-CSF (R&D system Inc.) that is a macrophage differentiator for three days under the conditions of 37° C., 95% (v/v) air, and 5% (v/v) CO2 to be 4×10^4 cell/well so that the macrophase derived from the myeloplast was obtained. In this situation, in addition to the concentration of 30 ng/ml hM-CSF, mouse RANKL that is an osteoclast differentiator was expressed in E. coli; it was purely separated and purified; it was added in the concentration of 100 ng/ml; and then it was continuously cultured under the same conditions to induce the cell differentiation to the osteoclast. After culturing for 4 days, the cell was fixed with 3.7% formaldehyde for 15 minutes at room temperature; washed with distilled water twice; the staining solution made by mixing acetate, Fast Gargnet GBC base, naphtol AS-BI phosphate, […], and tartrate in the ratio as disclosed in the instructions of Acid Phosphatase, Leukocyte (TRAP) Kit™ (Sigma Co.) was added to be […]; and then reacted at 37° C. for 20 minutes to stain the differentiated osteoclast.

## O=C1C(O)=C(O)C(=O)c2c(O)c(Cl)c(Cl)c(O)c21 [IPS-02001, 6,7-Dichloro-2,3,5,8-tetrahydroxy-[1,4]naphthoquinone]
Mouse osteoclast
  inhibition ability for differentiating to the osteoclast: excellent inhibition ability
Mouse skull calvaria
  effect on inhibiting the born destruction effect due to LPS in vivo: has the effect on inhibiting the born destruction effect
osteoclast
  inhibition ability for differentiating to the osteoclast: excellent inhibition ability

## O=C(O)C1CSC(c2ccccn2)N1 (stereo not shown) [IPS-02003, 2-Pyridin-2-yl-thiazolidine-4-carboxylic acid]
Mouse osteoclast
  inhibition ability for differentiating to the osteoclast: no inhibition ability
osteoclast
  inhibition ability for differentiating to the osteoclast: no inhibition ability

## O=C1C(O)=C(O)C(=O)c2c(O)c(Cl)cc(O)c21 [IPS-02002, 6-Chloro-2,3,5,8-tetrahydroxy-[1,4]naphthoquinon]
Mouse osteoclast
  inhibition ability for differentiating to the osteoclast: excellent inhibition ability
osteoclast
  inhibition ability for differentiating to the osteoclast: excellent inhibition ability
